This is an account of results in PMC7881117 (Nature Communications, 2021).

The target of this assay is T1, p53 (Homo sapiens, UniProt P04637).
T1 construct: gene TP53
The assay can be described thus: SPR with immobilized p53; also STD NMR, […]-13C NCO NMR titration, SAXS and AUC with NTD. The assay is classed as binding.

T1 sequence (P04637 whole entry): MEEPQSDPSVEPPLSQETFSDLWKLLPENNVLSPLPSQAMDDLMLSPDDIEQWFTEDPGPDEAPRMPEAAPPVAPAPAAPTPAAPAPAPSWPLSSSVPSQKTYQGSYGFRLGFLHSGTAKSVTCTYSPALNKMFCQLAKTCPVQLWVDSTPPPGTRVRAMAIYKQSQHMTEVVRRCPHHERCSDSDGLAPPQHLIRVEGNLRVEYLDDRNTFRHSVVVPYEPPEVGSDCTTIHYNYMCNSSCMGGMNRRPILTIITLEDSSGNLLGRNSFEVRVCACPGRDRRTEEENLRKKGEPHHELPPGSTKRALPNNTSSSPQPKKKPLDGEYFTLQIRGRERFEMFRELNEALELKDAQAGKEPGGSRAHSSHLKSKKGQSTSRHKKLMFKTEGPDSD

Broadly, the Kd is the constant that tells how readily two partners part at equilibrium. As to `O=C(O[C@@H]1Cc2c(O)cc(O)cc2O[C@@H]1c1cc(O)c(O)c(O)c1)c1cc(O)c(O)c(O)c1` [EGCG, Epigallocatechin gallate], the affinity, expressed as Kd, was 1600 ± 1400 nM.
